Source: patent US20260166169A1, “ANTIBODY-DRUG CONJUGATE, PREPARATION METHOD AND USE THEREOF” (priority 2023, published 2026)

Test system: Detroit 562 cells
Test: In vitro killing assay of ADC on Detroit562 cells (CCK-8)
Assay type: cell-based
Details: Detroit 562, 5 days, 3-fold dilutions from 300 nM, CCK-8, FIG. 19
Description: Experimental Example 4: In Vitro Killing Assay of ADC on Detroit562 Cells
Detroit 562 cells (purchased from Nan Jing cobioer biosciences Co., Ltd.) were cultured so that a cell density reached to 80%. The cells were collected, plated in a 96-well plate, and the cell density was adjusted to 2-5×10^4/ml. Each well was plated with 100 μL of cells, and the ADC molecules were serially diluted 3 times with an initial concentration of 300 nM. After the dilution was completed, the ADC molecules were added to the cell culture medium and cultured for 5 days, during which the apoptosis of the cells was observed regularly. After 5 days, 15 μL of the CCK-8 kit stock solution was added to the 96-well plate and reacted in an incubator of 37° C. for 0.5-2 h. An absorbance at 450 nm was measured, and cell survival curves were drawn based on OD (optical density) readings and ADC dilution gradients.
Human IgG-DXD prepared in Comparative Example 4, Human IgG-LP1 prepared in Comparative Example 5, Human IgG-LP2 prepared in Comparative Example 7, Hu1H2-2-LP1 prepared in Example 6, Hu1H2-2-LP2 prepared in Example 8, and Hu1H2-2-DXD prepared in Comparative Example 9 were selected as ADC molecules. Wherein Human IgG was used as the isotype control of Hu1H2-2 antibody, and DXD was used as positive drug.

## CC[C@@]1(O)C(=O)OCc2c1cc1n(c2=O)Cc2c-1nc1cc(F)c(C)c3c1c2[C@@H](NC(=O)OCc1ccc(NC(=O)CNC(=O)[C@H](Cc2ccccc2)NC(=O)CNC(=O)CNC(=O)CCCCCN2C(=O)C=CC2=O)cc1CN(C)C(=O)CN(C)C(=O)CN(C)C(=O)CN(C)C(=O)CN(C)C(=O)CN(C)C(=O)CN(C)C(=O)CN(C)C(=O)CN(C)C(=O)CN(C)C(=O)CN(C)C(C)=O)CC3 [LP-2]
  in vitro killing effect (cell survival curve): more excellent killing effects in vitro on Detriot562
